Data published in PubChem BioAssay AID1918958 (Molecular Pharmacology Branch, DTP, NCI, 2023).
“And” between values parts separate entries of the source, which are not always exact repeats. Equal values may be shown once. Blank lines part the entries; values can stand above or below the compound they belong to.

Test system: NCI-H196 complex spheroid viability
Test: Anticancer human tumor NCI-H196 cell line growth inhibition [LSD1];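 note: spheroids exposed to agents for 7 days before readout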;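 for viability, T/C: 100% = DMSO vehicle control viability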
Conditions: for viability, T/C: stronger effect = lower value
Description: Multicellular complex tumor spheroid response to LSD1 Inhibitor Iadademstat in combination with a variety of drugs and investigational agents in selected tumor cell lines
The current study was undertaken to assess response to LSD1 inhibitors in combination with standard-of-care drugs and investigational agents in solid tumor complex spheroid models as well as in the K-562 leukemia. Complex spheroids include a stromal component modeled by human endothelial cells (HUVEC) and fibroblasts modeled by human mesenchymal stem cells (MSCs). The concentration ranges selected for each drug and investigational agent were based upon clinically achievable concentrations if the clinical Cmax of the agent was known.
Compounds. The drugs and investigational agents used in this study are listed on Table 1. All of the agents used, including staurosporine (NSC755774) and gemcitabine (NSC613327), were obtained from the Developmental Therapeutics Program, NCI. FDA-approved anticancer drugs are available from the NCI at http://dtp.nci.nih.gov/branches/dscb/oncology_drugset_explanation.html. Drugs and investigational agents were >95% pure by proton nuclear magnetic resonance (NMR) and liquid chromatography/mass spectrometry (LC/MS). Stock solutions were prepared at 400x in DMSO, stored at -70 degrees C, and diluted in fresh medium prior to their use. The final concentration of DMSO in cell culture wells never exceeded 0.25% (v/v). The FDA-approved anticancer drug set is available from the Developmental Therapeutics Program at https://dtp.cancer.gov/organization/dscb/obtaining/available_plates.htm. All drugs and investigational agents were tested over a range starting from a high concentration at or near the clinical Cmax and decreasing in half-log increments. If the clinical Cmax for an agent had not been determined, the highest concentration tested was 10 microM.
Cell Lines. The patient-derived cancer cell (PDC) lines: 292921-168-R-J2-PDC, K24384-001-R-PDC, and 521955-158-R2-J5-PDC pancreatic carcinomas, 556581-035-R-J1 ovarian carcinoma, 324938-238-R-J1-PDC, 855422-203-R-J1-PDC and 883617-216-R-J1-PDC urothelial bladder carcinomas, 743489-274-T-PDC renal cell carcinoma, 138582-R-J1 Merkel cell tumor, K60290-347-R-J1 and K57222-313-R-J1-PDC glioblastomas, 653999-131-R-J2-PDC, LG0703-F948-PDC, and 349418-098-R-PDC non-small cell lung carcinomas, 885512-296-R-J2-PDC, 171881-019-R-J1-PDC breast carcinomas and 186277-243-T-J2-PDC and 233499-124-R-J2-PDC colon carcinomas were obtained from the NCI Patient-Derived Models Repository (PDMR, https://pdmr.cancer.gov). The established cell lines NCI/ADR-RES (RRID:CVCL_14520 and OVCAR-5 (RRID:CVCL_1628) ovarian carcinomas, 786-O (RRID:CVCL_1051) and A498 (RRID:CVCL_A498) renal cell carcinoma, NCI-H211 (ATCC, cat. CRL-5824; RRID:CVCL_1529), NCI-H196 (ATCC, cat. CRL-5823, RRID:CVCL_1509), SW 1271 (ATCC, cat. CRL-2177, RRID:CVCL_1716) and NCI-H1876 (ATCC, cat. CRL-5902, RRID:CVCL_1503) small cell lung carcinomas, MDA-MB-231 (RRID:CVCL_0062) and MDA-MB-468 (RRID:CVCL_0419)breast carcinomas (10-12). Pooled donor human umbilical vein endothelial cells (HUVEC, Lonza, cat. CC-2519) and human mesenchymal stem cells (hMSC, Lonza, cat. PT-2501) were purchased from Lonza (Walkersville, MD).
Cell Culture. All cells were maintained in an incubator at 37 degrees C and 5% CO2 with 95% humidity. The PDC lines were cultured according to standard operating procedures established by the NCI PDMR (https://pdmr.cancer.gov). Briefly all PDCs were thawed and cultured in Matrigel-coated flasks prepared with a working solution of 1X Ham's F-12 nutrient mix, without supplementation (Invitrogen, Waltham, MA, cat. 11765054), 100 U/mL penicillin-streptomycin (Invitrogen, cat. 15140122), and 2.5% Matrigel (Corning Inc., Corning, NY, cat. 354248) for the first three passages. […]

[1] = curve of first compound, second compound 0.1 µM
[2] = curve of first compound, second compound 0.316 µM
[3] = curve of first compound, second compound 1 µM
[4] = curve of first compound, second compound 3.16 µM
[5] = curve of first compound, second compound 10 µM
[6] = second compound 0.1 µM, first compound 0.00949 µM
[7] = second compound 0.1 µM, first compound 0.03 µM
[8] = second compound 0.1 µM, first compound 0.0949 µM
[9] = second compound 0.1 µM, first compound 0.3 µM
[10] = second compound 0.1 µM, first compound 0.949 µM
[11] = second compound 0.1 µM, first compound 3 µM
[12] = second compound 0.316 µM, first compound 0.00949 µM
[13] = second compound 0.316 µM, first compound 0.03 µM
[14] = second compound 0.316 µM, first compound 0.0949 µM
[15] = second compound 0.316 µM, first compound 0.3 µM
[16] = second compound 0.316 µM, first compound 0.949 µM
[17] = second compound 0.316 µM, first compound 3 µM
[18] = second compound 1 µM, first compound 0.00949 µM
[19] = second compound 1 µM, first compound 0.03 µM
[20] = second compound 1 µM, first compound 0.0949 µM
[21] = second compound 1 µM, first compound 0.3 µM
[22] = second compound 1 µM, first compound 0.949 µM
[23] = second compound 1 µM, first compound 3 µM
[24] = second compound 3.16 µM, first compound 0.00949 µM
[25] = second compound 3.16 µM, first compound 0.03 µM
[26] = second compound 3.16 µM, first compound 0.0949 µM
[27] = second compound 3.16 µM, first compound 0.3 µM
[28] = second compound 3.16 µM, first compound 0.949 µM
[29] = second compound 3.16 µM, first compound 3 µM
[30] = second compound 10 µM, first compound 0.00949 µM
[31] = second compound 10 µM, first compound 0.03 µM
[32] = second compound 10 µM, first compound 0.0949 µM
[33] = second compound 10 µM, first compound 0.3 µM
[34] = second compound 10 µM, first compound 0.949 µM
[35] = second compound 10 µM, first compound 3 µM

Compound: COc1cc(C2c3cc4c(cc3C(OC3OC5COC(C)OC5C(O)C3O)C3COC(=O)C23)OCO4)cc(OC)c1O (configuration not stated) + NC1CC1c1ccc(-c2cccc(O)c2)cc1
IC50 [1]: > 3000 nM | IC50 [2]: > 3000 nM | IC50 [3]: > 3000 nM | IC50 [4]: > 3000 nM | IC50 [5]: > 3000 nM | viability, T/C [6]: 95.2% | viability, T/C [7]: 97% | viability, T/C [8]: 109% | viability, T/C [9]: 101% | viability, T/C [10]: 85.1% | viability, T/C [11]: 69.1% | viability, T/C [12]: 98.5% | viability, T/C [13]: 100% | viability, T/C [14]: 105% | viability, T/C [15]: 102% | viability, T/C [16]: 88.2% | viability, T/C [17]: 65.1% | viability, T/C [18]: 90.9% | viability, T/C [19]: 104% | viability, T/C [20]: 117% | viability, T/C [21]: 121% | viability, T/C [22]: 84.1% | viability, T/C [23]: 61.8% | viability, T/C [24]: 92.8% | viability, T/C [25]: 92.4% | viability, T/C [26]: 104% | viability, T/C [27]: 91.4% | viability, T/C [28]: 76.9% | viability, T/C [29]: 53.7% | viability, T/C [30]: 90% | viability, T/C [31]: 101% | viability, T/C [32]: 102% | viability, T/C [33]: 90.8% | viability, T/C [34]: 78.5% | viability, T/C [35]: 59.9%

Compound: O=C(c1cc(Cc2n[nH]c(=O)c3ccccc23)ccc1F)N1CCN(C(=O)C2CC2)CC1 + NC1CCC(NC2CC2c2ccccc2)CC1
IC50 [1]: > 10000 nM | IC50 [2]: > 10000 nM | IC50 [3]: > 10000 nM | IC50 [4]: > 10000 nM | IC50 [5]: > 10000 nM | viability, T/C (second compound 0.1 µM, first compound 0.0316 µM): 91.8% | viability, T/C (second compound 0.1 µM, first compound 0.1 µM): 97.9% | viability, T/C (second compound 0.1 µM, first compound 0.316 µM): 91.7% | viability, T/C (second compound 0.1 µM, first compound 1 µM): 86.5% | viability, T/C (second compound 0.1 µM, first compound 3.16 µM): 93.5% | viability, T/C (second compound 0.1 µM, first compound 10 µM): 88.3% | viability, T/C (second compound 0.316 µM, first compound 0.0316 µM): 89.8% | viability, T/C (second compound 0.316 µM, first compound 0.1 µM): 103% | viability, T/C (second compound 0.316 µM, first compound 0.316 µM): 97.8% | viability, T/C (second compound 0.316 µM, first compound 1 µM): 94.8% | viability, T/C (second compound 0.316 µM, first compound 3.16 µM): 83.4% | viability, T/C (second compound 0.316 µM, first compound 10 µM): 83% | viability, T/C (second compound 1 µM, first compound 0.0316 µM): 89.9% | viability, T/C (second compound 1 µM, first compound 0.1 µM): 91.4% | viability, T/C (second compound 1 µM, first compound 0.316 µM): 95.6% | viability, T/C (second compound 1 µM, first compound 1 µM): 83.5% | viability, T/C (second compound 1 µM, first compound 3.16 µM): 89% | viability, T/C (second compound 1 µM, first compound 10 µM): 80.1% | viability, T/C (second compound 3.16 µM, first compound 0.0316 µM): 91% | viability, T/C (second compound 3.16 µM, first compound 0.1 µM): 87% | viability, T/C (second compound 3.16 µM, first compound 0.316 µM): 88% | viability, T/C (second compound 3.16 µM, first compound 1 µM): 87.4% | viability, T/C (second compound 3.16 µM, first compound 3.16 µM): 85.7% | viability, T/C (second compound 3.16 µM, first compound 10 µM): 87.5% | viability, T/C (second compound 10 µM, first compound 0.0316 µM): 89.9% | viability, T/C (second compound 10 µM, first compound 0.1 µM): 90.2% | viability, T/C (second compound 10 µM, first compound 0.316 µM): 88.1% | viability, T/C (second compound 10 µM, first compound 1 µM): 89.5% | viability, T/C (second compound 10 µM, first compound 3.16 µM): 85.7% | viability, T/C (second compound 10 µM, first compound 10 µM): 86.8%

Compound: O=C(C=Cc1cccc(S(=O)(=O)Nc2ccccc2)c1)NO + NC1CCC(NC2CC2c2ccccc2)CC1
IC50 [1]: 163 nM | IC50 [2]: 139 nM | IC50 [3]: 158 nM | IC50 [4]: 145 nM | IC50 [5]: 138 nM | viability, T/C [6]: 99.6% | viability, T/C [7]: 103% | viability, T/C [8]: 75.4% | viability, T/C [9]: 21.1% | viability, T/C [10]: 0.51% | viability, T/C [11]: 0.44% | viability, T/C [12]: 93.9% | viability, T/C [13]: 101% | viability, T/C [14]: 65.8% | viability, T/C [15]: 16.7% | viability, T/C [16]: 0.24% | viability, T/C [17]: 1.63% | viability, T/C [18]: 94.5% | viability, T/C [19]: 93.4% | viability, T/C [20]: 75.4% | viability, T/C [21]: 18.4% | viability, T/C [22]: 0.31% | viability, T/C [23]: 0.36% | viability, T/C [24]: 96.9% | viability, T/C [25]: 92.3% | viability, T/C [26]: 68.5% | viability, T/C [27]: 18.5% | viability, T/C [28]: 0.41% | viability, T/C [29]: 0.27% | viability, T/C [30]: 88.8% | viability, T/C [31]: 89.8% | viability, T/C [32]: 64.7% | viability, T/C [33]: 18.6% | viability, T/C [34]: 0.76% | viability, T/C [35]: 0.84%

More lines, main results first:

IC50 (curve of compound): 724 nM and 543 nM
Compound: CC1COCCN1c1cc(-c2ccnn2C)c2ccnc(-c3ccn[nH]3)c2n1 (configuration not stated)
viability, T/C (compound 0.00316 µM): 77.7% and 75.2% | viability, T/C (compound 0.01 µM): 77.9% and 70% | viability, T/C (compound 0.0316 µM): 64.6% and 70% | viability, T/C (compound 0.1 µM): 65.4% and 57.1% | viability, T/C (compound 0.316 µM): 55.8% and 53.1% | viability, T/C (compound 1 µM): 47.5% and 46.9%

IC50 (compound alone, run of 02/21/2022): > 10000 nM
Compound: NC1CC1c1ccc(-c2cccc(O)c2)cc1 (configuration not stated)
viability, T/C (compound 0.316 µM): 95.9% [middle of 25 runs] | viability, T/C (compound 1 µM): 97.8% [middle of 25 runs]

IC50 (curve of compound): > 10000 nM
Compound: CC(C)c1c(-c2ccccc2)nc2c(C#N)c[nH]n2c1=O
viability, T/C (compound 0.0316 µM): 107% and 96.4% | viability, T/C (compound 0.1 µM): 108% and 100% | viability, T/C (compound 0.316 µM): 98.3% and 93.8% | viability, T/C (compound 1 µM): 101% and 91% | viability, T/C (compound 3.16 µM): 99.7% and 94.1% | viability, T/C (compound 10 µM): 88.7% and 84.2%
